Experimental data reported in ChEMBL document CHEMBL3046894, “Synthesis and Herbicidal Activity of Pyrimidinyl Salicylic and Thiosalicylic Acids” (J Pestic Sci, 1996).
Activity calls are given as the source filed them. The calls are words filed in the database; no cut-off is given here.

Experiments:
[1] = (§1) Pre-emergence phytotoxicity against Glycine max (soybean) assessed as mortality at 6.3 g a.i/10 a; type: organism-based; conditions: in vivo, 6.3 g a.i/10 a, read-out: Activity
Gossypium hirsutum [2] = experiment: (§2) Post-emergence phytotoxicity against Gossypium hirsutum (cotton) assessed as mortality at 1.6 g a.i/10 a applied 11 days after germination as foliar spray; type: organism-based; conditions: in vivo, other, 264 h
Xanthium strumarium [3] = experiment: Post-emergence herbicidal activity against Xanthium strumarium (cocklebur) assessed as mortality at 1.6 g a.i/10 a applied 11 days after germination as foliar spray; type: functional; conditions: 264 h
[4] = (§3) Pre-emergence phytotoxicity against Glycine max (soybean) assessed as mortality at 1.6 g a.i/10 a; type: organism-based; conditions: in vivo, 1.6 g a.i/10 a, read-out: Activity
Echinochloa crus-galli [5] = experiment: Pre-emergence herbicidal activity against Echinochloa crus-galli (barnyard grass) assessed as mortality at 6.3 g a.i/10 a; type: functional
Gossypium hirsutum [6] = experiment: Pre-emergence phytotoxicity against Gossypium hirsutum (cotton) assessed as mortality at 1.6 g a.i/10 a; type: organism-based; conditions: in vivo, other
Xanthium strumarium [7] = experiment: Pre-emergence herbicidal activity against Xanthium strumarium (cocklebur) assessed as mortality at 6.3 g a.i/10 a; type: functional
[8] = Pre-emergence phytotoxicity against Zea mays (maize) assessed as mortality at 1.6 g a.i/10 a; type: organism-based; conditions: in vivo, 1.6 g a.i/10 a
Gossypium hirsutum [9] = experiment: Pre-emergence phytotoxicity against Gossypium hirsutum (cotton) assessed as mortality at 6.3 g a.i/10 a; type: organism-based; conditions: in vivo, other
Ipomoea lacunosa [10] = experiment: Pre-emergence herbicidal activity against Ipomoea lacunosa assessed as mortality at 1.6 g a.i/10 a; type: functional
Gossypium hirsutum [11] = experiment: Post-emergence phytotoxicity against Gossypium hirsutum (cotton) assessed as mortality at 6.3 g a.i/10 a applied 11 days after germination as foliar spray; type: organism-based; conditions: in vivo, other, 264 h
Echinochloa crus-galli [12] = experiment: Pre-emergence herbicidal activity against Echinochloa crus-galli (barnyard grass) assessed as mortality at 1.6 g a.i/10 a; type: functional
Zea mays [13] = experiment: Post-emergence phytotoxicity against Zea mays (maize) assessed as mortality at 6.3 g a.i/10 a applied 11 days after germination as foliar spray; type: organism-based; conditions: in vivo, other, 264 h
Glycine max [14] = experiment: (§4) Post-emergence phytotoxicity against Glycine max (soybean) assessed as mortality at 1.6 g a.i/10 a applied 11 days after germination as foliar spray; type: organism-based; conditions: in vivo, other, 264 h
Abutilon theophrasti [15] = experiment: Pre-emergence herbicidal activity against Abutilon theophrasti (velvetleaf) assessed as mortality at 1.6 g a.i/10 a; type: functional
Xanthium strumarium [16] = experiment: Pre-emergence herbicidal activity against Xanthium strumarium (cocklebur) assessed as mortality at 1.6 g a.i/10 a; type: functional
Zea mays [17] = experiment: (§5) Post-emergence phytotoxicity against Zea mays (maize) assessed as mortality at 1.6 g a.i/10 a applied 11 days after germination as foliar spray; type: organism-based; conditions: in vivo, other, 264 h
Ipomoea lacunosa [18] = experiment: Post-emergence herbicidal activity against Ipomoea lacunosa assessed as mortality at 6.3 g a.i/10 a applied 11 days after germination as foliar spray; type: functional; conditions: 264 h
Ipomoea lacunosa [19] = experiment: Post-emergence herbicidal activity against Ipomoea lacunosa assessed as mortality at 1.6 g a.i/10 a applied 11 days after germination as foliar spray; type: functional; conditions: 264 h
Glycine max [20] = experiment: Post-emergence phytotoxicity against Glycine max (soybean) assessed as mortality at 6.3 g a.i/10 a applied 11 days after germination as foliar spray; type: organism-based; conditions: in vivo, other, 264 h
Zea mays [21] = experiment: Pre-emergence phytotoxicity against Zea mays (maize) assessed as mortality at 6.3 g a.i/10 a; type: organism-based; conditions: in vivo, other
Ipomoea lacunosa [22] = experiment: Pre-emergence herbicidal activity against Ipomoea lacunosa assessed as mortality at 6.3 g a.i/10 a; type: functional
Echinochloa crus-galli [23] = experiment: Post-emergence herbicidal activity against Echinochloa crus-galli (barnyard grass) assessed as mortality at 1.6 g a.i/10 a applied 11 days after germination as foliar spray; type: functional; conditions: 264 h
Echinochloa crus-galli [24] = experiment: Post-emergence herbicidal activity against Echinochloa crus-galli (barnyard grass) assessed as mortality at 6.3 g a.i/10 a applied 11 days after germination as foliar spray; type: functional; conditions: 264 h
Persicaria nodosa [25] = experiment: Pre-emergence herbicidal activity against Persicaria nodosa assessed as growth inhibition at 25 g a.i/10 a; type: functional, organism-based
Glycine max [26] = experiment: as §1; type: organism-based; conditions: in vivo, other
Digitaria sanguinalis [27] = experiment: Post-emergence herbicidal activity against Digitaria sanguinalis (hairy crabgrass) assessed as growth inhibition at 25 g a.i/10 a applied 11 days after germination as foliar spray; type: functional, organism-based
Glycine max [28] = experiment: as §3; type: organism-based; conditions: in vivo, other
Chenopodium album [29] = experiment: Post-emergence herbicidal activity against Chenopodium album assessed as growth inhibition at 25 g a.i/10 a applied 11 days after germination as foliar spray; type: functional, organism-based
Abutilon theophrasti [30] = experiment: Post-emergence herbicidal activity against Abutilon theophrasti (velvetleaf) assessed as mortality at 6.3 g a.i/10 a applied 11 days after germination as foliar spray; type: functional; conditions: 264 h
Persicaria nodosa [31] = experiment: Post-emergence herbicidal activity against Persicaria nodosa assessed as growth inhibition at 25 g a.i/10 a applied 11 days after germination as foliar spray; type: functional, organism-based
[32] = as §4; type: organism-based; conditions: in vivo, 1.6 g a.i/10 a
Amaranthus retroflexus [33] = experiment: Pre-emergence herbicidal activity against Amaranthus retroflexus assessed as growth inhibition at 25 g a.i/10 a; type: functional, organism-based
Chenopodium album [34] = experiment: Pre-emergence herbicidal activity against Chenopodium album assessed as growth inhibition at 25 g a.i/10 a; type: functional, organism-based
Cyperus iria [35] = experiment: Post-emergence herbicidal activity against Cyperus iria assessed as growth inhibition at 25 g a.i/10 a applied 11 days after germination as foliar spray; type: functional, organism-based
Abutilon theophrasti [36] = experiment: Post-emergence herbicidal activity against Abutilon theophrasti (velvetleaf) assessed as mortality at 1.6 g a.i/10 a applied 11 days after germination as foliar spray; type: functional; conditions: 264 h
Digitaria sanguinalis [37] = experiment: Pre-emergence herbicidal activity against Digitaria sanguinalis (hairy crabgrass) assessed as growth inhibition at 25 g a.i/10 a; type: functional, organism-based
[38] = as §5; type: organism-based; conditions: in vivo, 1.6 g a.i/10 a
Xanthium strumarium [39] = experiment: Post-emergence herbicidal activity against Xanthium strumarium (cocklebur) assessed as mortality at 6.3 g a.i/10 a applied 11 days after germination as foliar spray; type: functional; conditions: 264 h
Echinochloa crus-galli [40] = experiment: Pre-emergence herbicidal activity against Echinochloa crus-galli (barnyard grass) assessed as growth inhibition at 25 g a.i/10 a; type: functional, organism-based
Echinochloa crus-galli [41] = experiment: Post-emergence herbicidal activity against Echinochloa crus-galli (barnyard grass) assessed as growth inhibition at 25 g a.i/10 a applied 11 days after germination as foliar spray; type: functional, organism-based
Cyperus iria [42] = experiment: Pre-emergence herbicidal activity against Cyperus iria assessed as growth inhibition at 25 g a.i/10 a; type: functional, organism-based
Amaranthus retroflexus [43] = experiment: Post-emergence herbicidal activity against Amaranthus retroflexus assessed as growth inhibition at 25 g a.i/10 a applied 11 days after germination as foliar spray; type: functional, organism-based
[44] = as §2; type: organism-based; conditions: in vivo, 1.6 g a.i/10 a
[45] = Xanthium strumarium, pre-emergence

| SMILES | Activity (Gossypium hirsutum [2]) | Activity (Echinochloa crus-galli [5]) [%] | Activity (Gossypium hirsutum [6]) | mortality ([8]; read-out: Activity) [%] | Activity (Gossypium hirsutum [9]) | Activity (Gossypium hirsutum [11]) | Activity (Echinochloa crus-galli [12]) [%] | Activity (Zea mays [13]) | Activity (Glycine max [14]) | Activity (Zea mays [17]) | mortality at 63 g/ha (Ipomoea lacunosa [18]) [%] | Activity (Glycine max [20]) | Activity (Zea mays [21]) [%] | Activity (Glycine max [26]) | Activity (Glycine max [28]) | mortality at 63 g/ha (Abutilon theophrasti [30]) [%] | also measured |
| --- | --- | --- | --- | --- | --- | --- | --- | --- | --- | --- | --- | --- | --- | --- | --- | --- | --- |
| CCCOc1cccc(Sc2nc(OC)cc(OC)n2)c1C(=O)O | Non-toxic | <50 | Non-toxic | < 50 | Non-toxic | Toxic | <50 | Toxic | Non-toxic | Non-toxic | < 5 | Toxic | < 50 | – | – | – | mortality [1]: < 50%; mortality at 16 g/ha (Xanthium strumarium [3]): < 5%; mortality [4]: < 50%; Activity (Xanthium strumarium [7]): <50%; Activity (Ipomoea lacunosa [10]): <50%; Activity (Abutilon theophrasti [15]): <50%; Activity (Xanthium strumarium [16]): <50%; mortality at 16 g/ha (Ipomoea lacunosa [19]): < 5%; Activity (Ipomoea lacunosa [22]): <50%; mortality at 16 g/ha (Echinochloa crus-galli [23]): < 5%; mortality at 63 g/ha (Echinochloa crus-galli [24]): < 5% |
| COc1cc(OC)nc(Oc2cccc(C(F)(F)F)c2C(=O)O)n1 | Toxic | – | Non-toxic | – | Non-toxic | Toxic | – | – | – | – | > 90 | – | – | Toxic | Toxic | > 90 | growth inhibition (GI) (Persicaria nodosa [25]): Active; growth inhibition (GI) (Digitaria sanguinalis [27]): Active; growth inhibition (GI) (Chenopodium album [29]): Active; mortality at 63 g/ha (Xanthium strumarium [7]; [45]): < 5%; mortality ([8]; read-out: mortality): > 90%; growth inhibition (GI) (Persicaria nodosa [31]): Active; mortality at 16 g/ha (Ipomoea lacunosa [10]; Ipomoea lacunosa, pre-emergence): < 5%; mortality at 264 h [32]: > 90%; growth inhibition (GI) (Amaranthus retroflexus [33]): Active; growth inhibition (GI) (Chenopodium album [34]): Active; growth inhibition (GI) (Cyperus iria [35]): Active; mortality at 16 g/ha (Abutilon theophrasti [36]): > 90%; growth inhibition (GI) (Digitaria sanguinalis [37]): Active; mortality at 16 g/ha (Xanthium strumarium [16]; [45]): < 5%; mortality at 264 h [38]: > 90%; mortality at 63 g/ha (Xanthium strumarium [39]): > 90%; growth inhibition (GI) (Echinochloa crus-galli [40]): Active; growth inhibition (GI) (Echinochloa crus-galli [41]): Active; growth inhibition (GI) (Cyperus iria [42]): Active; growth inhibition (GI) (Amaranthus retroflexus [43]): Active |
| COc1cc(OC)nc(Sc2cccc(OC)c2C(=O)O)n1 | – | >90 | Non-toxic | > 90 | Non-toxic | Non-toxic | >90 | Toxic | Toxic | Toxic | – | Toxic | > 90 | Toxic | Toxic | > 90 | mortality at 264 h [44]: < 5% |
